Measurements published in patent US20120094964A1, “SULFAMOYL BENZOIC ACID DERIVATIVES AS TRPM8 ANTAGONISTS” (priority 2009, published 2012).
pIC50: −log10 of the molar value.

The compounds below were run against T1, human TRPM8 (Homo sapiens, UniProt Q7Z2W7) (assay: In Vitro human TRPM8 Functional Assay (intracellular Ca2+, Fluo4, FDSS, menthol activation)). Conditions: HEK293 cells stably expressing human TRPM8; activation with L-(-)-Menthol; 11-point dose-response.
T1 construct: expressed in transfected cells
T1 sequence (Q7Z2W7 whole entry): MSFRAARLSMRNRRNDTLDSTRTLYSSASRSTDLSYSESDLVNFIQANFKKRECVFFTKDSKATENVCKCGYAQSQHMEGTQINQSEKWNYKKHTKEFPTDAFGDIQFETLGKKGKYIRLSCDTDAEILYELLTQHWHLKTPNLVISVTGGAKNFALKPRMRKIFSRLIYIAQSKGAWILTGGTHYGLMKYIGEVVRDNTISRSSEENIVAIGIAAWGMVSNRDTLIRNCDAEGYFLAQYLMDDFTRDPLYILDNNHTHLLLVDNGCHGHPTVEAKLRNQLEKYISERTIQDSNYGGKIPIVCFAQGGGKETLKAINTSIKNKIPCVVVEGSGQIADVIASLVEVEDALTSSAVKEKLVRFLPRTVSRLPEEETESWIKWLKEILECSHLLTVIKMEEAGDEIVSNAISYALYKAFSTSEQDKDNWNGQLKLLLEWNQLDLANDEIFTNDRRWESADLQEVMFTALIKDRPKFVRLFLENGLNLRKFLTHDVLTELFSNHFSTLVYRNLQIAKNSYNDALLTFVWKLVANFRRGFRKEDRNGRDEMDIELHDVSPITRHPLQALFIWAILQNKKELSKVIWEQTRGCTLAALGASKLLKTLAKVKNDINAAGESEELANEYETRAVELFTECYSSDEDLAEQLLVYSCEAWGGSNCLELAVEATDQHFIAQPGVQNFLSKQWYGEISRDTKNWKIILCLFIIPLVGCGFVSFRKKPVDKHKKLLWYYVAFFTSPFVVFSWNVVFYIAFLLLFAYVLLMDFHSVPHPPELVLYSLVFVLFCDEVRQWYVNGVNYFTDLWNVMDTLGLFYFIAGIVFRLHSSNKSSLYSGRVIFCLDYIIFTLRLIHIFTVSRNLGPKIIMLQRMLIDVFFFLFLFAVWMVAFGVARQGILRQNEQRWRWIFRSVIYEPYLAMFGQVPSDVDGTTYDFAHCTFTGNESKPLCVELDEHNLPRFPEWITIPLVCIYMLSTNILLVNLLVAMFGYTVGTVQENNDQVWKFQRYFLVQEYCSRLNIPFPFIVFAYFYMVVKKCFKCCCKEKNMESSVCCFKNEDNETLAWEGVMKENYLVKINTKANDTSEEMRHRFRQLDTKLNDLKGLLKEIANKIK
Assay type: cell-based
Experimental: In Vitro human TRPM8 Functional Assay
The functional activity of compounds was determined by measuring changes in intracellular calcium concentration using a Ca^2+-sensitive fluorescent dye, Fluo4 (Molecular Probes). The changes in fluorescent signal were monitored by the cell imaging technology by Hamamatsu Photonics's Functional Drug Screening System (FDSS).
HEK293 cells stably expressing human TRPM8 were grown in T175 flasks, in a 5% CO2 humidified incubator to about 80% confluence. Media composition consisted of Dulbecco's Modified Eagle Medium (high glucose), 10% fetal calf serum (FCS), 100 units/ml Penicillin, 100 microg/ml Streptomycin and 600 microg/ml Geneticine.
1. Plate-out HEK293-TRPM8 cells (40 microL medium containing 30,000 cells per well) into poly-D-lysine coated 384-well plates (BD FALCON) at 24 hours prior to assay.
1. […] 2. […] 3. Place the plate at room temperature in dark for 1 hour. 4. […] 5. Add 20 microL of compound solutions into each well and leave the plate for 5 minutes under the dark at room temperature. 6. Measure activity by FDSS as follows: • Set the assay plate on the stacker of FDSS • Start the detection of fluorescence intensity • After 30 sec, add 20 microL of 90 microM L-(−)-Menthol
IC50 values for compounds of the present invention were determined from 11-point dose-response studies. Curves were generated using the average of duplicate wells for each data point. Finally, the IC50 values are calculated with the best-fit dose curve determined by XLfit (ID Business Solutions Ltd.).

pIC50 | SMILES
> 6.00 | CC(C)c1ccc(CN(c2ncc(C(F)(F)F)cc2Cl)S(=O)(=O)c2ccc(C(=O)O)cc2)cc1 [Example 28, 4-(N-(3-Chloro-5-(trifluoromethyl)pyridin-2-yl)-N-(4-isopropylbenzyl)sulfamoyl)benzoic acid]
> 6.00 | O=C(O)c1ccc(S(=O)(=O)N(Cc2ccc(C(F)(F)F)cc2)c2ncc(Cl)cc2Cl)cc1 [Example 54, 4-(N-(3,5-Dichloropyridin-2-yl)-N-(4-(trifluoromethyl)benzyl)sulfamoyl)benzoic acid]
> 6.00 | Cc1cc(S(=O)(=O)N(Cc2ccccc2)c2ncc(C(F)(F)F)cc2Cl)ccc1C(=O)O [Example 143, 4-(N-Benzyl-N-(3-chloro-5-(trifluoromethyl)pyridin-2-yl)sulfamoyl)-2-methylbenzoic acid]
> 6.00 | CN(C)S(=O)(=O)NCc1ccc(S(=O)(=O)N(Cc2ccccc2)c2ncc(C(F)(F)F)cc2Cl)cc1 [Example 178, N-Benzyl-N-(3-chloro-5-(trifluoromethyl)pyridin-2-yl)-4-(((N,N-dimethylsulfamoyl)amino)methyl)benzenesulfonamide]
5.00 to 6.00 | COc1cccc(C(C)N(c2cccc(OC)c2)S(=O)(=O)c2ccc(C)c(Cl)c2)c1 (stereo not shown) [Example 102, 3-Chloro-N-(3-methoxyphenyl)-N-(1-(3-methoxy-phenyl)ethyl)-4-methyl benzenesulfonamide]
> 6.00 | COc1cccc(CN(c2ncc(C(F)(F)F)cc2Cl)S(=O)(=O)c2ccc(C(=O)O)cc2)c1 [Example 24, 4-(N-(3-Chloro-5-(trifluoromethyl)pyridin-2-yl)-N-(3-methoxybenzyl)sulfamoyl)benzoic acid]
5.00 to 6.00 | O=S(=O)(c1ccccc1)N(Cc1ccccc1)c1ccccn1 [Example 131, N-Benzyl-N-(pyridin-2-yl)benzenesulfonamide]
5.00 to 6.00 | COc1ccc(N(C(C)c2ccccc2OC)S(=O)(=O)c2ccccc2F)cc1OC (stereo not shown) [Example 93, N-(3,4-Dimethoxyphenyl)-2-fluoro-N-(1-(2-methoxy-phenyl)ethyl)benzene-sulfonamide]
> 6.00 | COc1cccc(-c2cnc(N(Cc3ccccc3)S(=O)(=O)c3ccc(C(=O)O)cc3)c(Cl)c2)c1 [Example 187, 4-(N-Benzyl-N-(3-chloro-5-(3-methoxyphenyl)pyridin-2-yl)sulfamoyl)benzoic acid]
> 6.00 | O=C(O)c1ccc(S(=O)(=O)N(Cc2ccc(NC(=O)c3ccccn3)cc2)c2ncc(C(F)(F)F)cc2Cl)cc1 [Example 161, 4-(N-(3-Chloro-5-(trifluoromethyl)pyridin-2-yl)-N-(4-(picolinamido)benzyl)sulfamoyl)benzoic acid]
> 6.00 | O=C(O)c1ccc(S(=O)(=O)N(Cc2ccc(F)c(F)c2)c2ncc(C(F)(F)F)cc2Cl)cc1 [Example 45, 4-(N-(3-Chloro-5-(trifluoromethyl)pyridin-2-yl)-N-(3,4-difluorobenzyl)sulfamoyl)benzoic acid]
> 6.00 | O=C(O)c1ccc(S(=O)(=O)N(Cc2ccccc2)c2ncc(C(F)(F)F)cc2Cl)cc1F [Example 191, 4-(N-Benzyl-N-(3-chloro-5-(trifluoromethyl)pyridin-2-yl)sulfamoyl)-2-fluorobenzoic acid]
> 6.00 | COc1ccc(-c2cnc(N(Cc3ccccc3)S(=O)(=O)c3ccc(C(=O)O)cc3)c(Cl)c2)cc1 [Example 186, 4-(N-Benzyl-N-(3-chloro-5-(4-methoxyphenyl)pyridin-2-yl)sulfamoyl)benzoic acid]
> 6.00 | Cc1cc(Cl)cnc1N(Cc1ccc(F)c(C(F)(F)F)c1)S(=O)(=O)c1ccc(C(=O)O)cc1 [Example 76, 4-(N-(5-Chloro-3-methylpyridin-2-yl)-N-(4-fluoro-3-(trifluoromethyl)benzyl)sulfamoyl)benzoic acid]
5.00 to 6.00 | Cc1cccc(N(C(C)c2ccccc2F)S(=O)(=O)c2ccc(F)cc2C)c1 (stereo not shown) [Example 98, 4-Fluoro-N-(1-(2-fluorophenyl)ethyl)-2-methyl-N-m-tolylbenzenesulfonamide]
5.00 to 6.00 | COc1ccc(OC)c(C(C)N(c2ccc(C)cc2)S(=O)(=O)c2ccc(C)cc2)c1 (stereo not shown) [Example 85, N-(1-(2,5-Dimethoxyphenyl)ethyl)-4-methyl-N-p-tolylbenzenesulfonamide]
> 6.00 | O=C(O)c1ccc(S(=O)(=O)N(Cc2ccc(F)cc2F)c2ncc(C(F)(F)F)cc2Cl)cc1 [Example 26, 4-(N-(3-Chloro-5-(trifluoromethyl)pyridin-2-yl)-N-(2,4-difluorobenzyl)sulfamoyl)benzoic acid]
> 6.00 | Cc1cc(Cl)cnc1N(Cc1ccccc1)S(=O)(=O)c1ccc(C(=O)O)cc1 [Example 38, 4-(N-Benzyl-N-(5-chloro-3-methylpyridin-2-yl)sulfamoyl)benzoic acid]
5.00 to 6.00 | O=C(CN(c1cccc(C(F)(F)F)c1)S(=O)(=O)c1ccccc1)Nc1ccccc1 [Example 8, N-Phenyl-2-(N-(3-(trifluoromethyl)phenyl)benzenesulfonamido)acetamide]
> 6.00 | O=S(=O)(c1ccc(CO)cc1)N(Cc1ccccc1)c1ncc(C(F)(F)F)cc1Cl [Example 9, N-Benzyl-N-(3-chloro-5-(trifluoromethyl)pyridin-2-yl)-4-(hydroxymethyl)benzene-1-sulfonamide]
5.00 to 6.00 | O=C(O)c1ccc(S(=O)(=O)N(Cc2ccccc2)c2cc(C(F)(F)F)ccn2)cc1 [Example 21, 4-(N-Benzyl-N-(4-(trifluoromethyl)pyridin-2-yl)sulfamoyl)benzoic acid]
> 6.00 | Cc1ccc(-c2ccc(CN(c3ncc(C(F)(F)F)cc3Cl)S(=O)(=O)c3ccc(C(=O)O)cc3)cc2)cn1 [Example 163, 4-(N-(3-chloro-5-(trifluoromethyl)pyridin-2-yl)-N-(4-(6-methylpyridin-3-yl)benzyl)sulfamoyl)benzoic acid]
> 6.00 | O=C(O)c1ccc(S(=O)(=O)N(Cc2ccc(C3CC3)cc2)c2ncc(C(F)(F)F)cc2Cl)cc1 [Example 150, 4-(N-(3-Chloro-5-(trifluoromethyl)pyridin-2-yl)-N-(4-cyclopropylbenzyl)sulfamoyl)benzoic acid]
> 6.00 | C[C@H](c1ccccc1)N(c1ncc(C(F)(F)F)cc1Cl)S(=O)(=O)c1ccc(C(=O)O)cc1 [Example 166, (R)-4-(N-(3-Chloro-5-(trifluoromethyl)pyridin-2-yl)-N-(1-phenylethyl)sulfamoyl)benzoic acid]
5.00 to 6.00 | O=C(O)c1ccc(S(=O)(=O)N(Cc2ccccc2)c2ncccc2Cl)cc1 [Example 37, 4-(N-Benzyl-N-(3-chloropyridin-2-yl)sulfamoyl)benzoic acid]
> 6.00 | O=C(O)c1ccc(S(=O)(=O)N(Cc2c(F)cccc2F)c2ncc(C(F)(F)F)cc2Cl)cc1 [Example 44, 4-(N-(3-Chloro-5-(trifluoromethyl)pyridin-2-yl)-N-(2,6-difluorobenzyl)sulfamoyl)benzoic acid]
> 6.00 | O=C(O)c1ccc(S(=O)(=O)N(CCOc2ccc(F)cc2)c2ncc(C(F)(F)F)cc2Cl)cc1 [Example 30, 4-(N-(3-Chloro-5-(trifluoromethyl)pyridin-2-yl)-N-(2-(4-fluorophenoxy)ethyl)sulfamoyl)benzoic acid]
> 6.00 | COc1ccccc1-c1cnc(N(Cc2ccccc2)S(=O)(=O)c2ccc(C(=O)O)cc2)c(Cl)c1 [Example 185, 4-(N-Benzyl-N-(3-chloro-5-(2-methoxyphenyl)pyridin-2-yl)sulfamoyl)benzoic acid]
